Measurements reported in article PMC10447463, “Data-mining unveils structure–property–activity correlation of viral infectivity enhancing self-assembling peptides” (Nature Communications, 2023).
Read-outs that look alike come from different tables or passages of the source.

Tests used:
[1] = assay type: physicochemical; design: key to Fibril / Fibril Formation / TEM 2cat / Fibril: 1 = fibrils present; 0 non-fibrillar structures
Procedure: For ATR FT–IR spectroscopy measurements, 200 µL of the respective 1 mg/mL PNF solution was lyophilized and the resulting powder used for measurement. All spectra were recorded on a Bruker Tensor 27 spectrometer with a diamond crystal as ATR element (PIKE MiracleTM, spectral resolution 2 cm^-1). Every sample was measured with 64 scans. Data were analyzed with OriginLab software and calculation of β–sheet content was conducted according to a previous report. TEM. For TEM measurements 5 µL of PNF fibrils (1 mg/mL) were placed on copper grids coated with carbon and formvar layer (300 mesh, Plano GmbH). After 10 min incubation time, the grids were staining with 4% uranyl acetate solution for 2.5 min and washed with water. Measurements were performed on a Jeol 1400 electron microscope with 120 kV acceleration voltage. CR Assay. For the determination of the amount of peptide monomer converting into nanostructures the amine reactive dye fluorescamine was used analogous to a previous reported protocol. Briefly, 100 µL of the preformed PNF solution was centrifuged in a Vivaspin 500 tube (3 kDa MWCO) to separate fibers from free peptide monomer (16200 x g, 4 °C, 45 min). The filtrate and 100 μL of the non-filtered PNF sample were lyophilized and dissolved in 30 μL DMSO. 10 μL of the filtrate and non-filtered DMSO samples were submitted in a black UV Star® 384 microliter well–plates (Greiner bio–one) and 3 μL of the fluorescamine solution (10 mg/mL, DMSO) was added to measure the fluorescence enhancement. After 20 min of incubation at RT, fluorescence was recorded on an Infinite® M1000 PRO microplate reader (Tecan) at λem = 470 nm upon excitation at λex = 365 nm with 10 nm bandwidths and multiple reads per well (3×3). Measurements were repeated in triplicates and averaged with standard deviation. All values were calculated as n-fold fluorescence enhancement (DMSO only as a reference was set to 1). The conversion rate CR was defined according to the equation Eq. (3).3 CR=100−100×fluorescenceintensityfiltrate/fluorescenceintensityoriginal[%]
(§1) 1. Remarks on experimental parameters and bioinformatic descriptors
1.1 Experimental parameters
Transmission electron microscopy (TEM) measurements. TEM measurements were used to control if peptides assemble. The assemblies were categorized in non -fibrillar structures (no assembly, […]
grid but only amorphous aggregates. In contrast, peptides defined as fibrillar may also include amorphous structures. Amongst nonfibrillar assemblies also amorphous aggregates are summarized.
Amorphous aggregates are defined as structures with high β-sheet content which lack long-range order, that is crystallinity or fibril formation. It is generally assumed that these structures might be

[2] = Zeta-potential measurement; assay type: physicochemical; design: Zeta-Potential: unit not given here; settings: for Zeta-pot. / mV: zeta potential of peptide, Fig S15 source data
Procedure: (§2) 4 µL of 1 mg/mL peptide fibrils solution is added to a 20 µL, 50 µM ThT–solution in PBS. The mixture is incubated for 15 min at RT to allow binding of ThT dye with β–sheet rich structures. For reference PBS (4 µL) was added instead of peptide fibril solution. The samples were placed in black UV Star® 384 microliter well–plates (Greiner bio–one). Fluorescence spectra were recorded on an Infinite® M1000 PRO microplate reader (Tecan) at λem = 488 nm upon excitation at λex = 440 nm with 10 nm bandwidths and multiple reads per well (3×3). Measurements were repeated in triplicates and averaged with standard deviation. […] Zeta-Potential. For the determination of the surface charge of aggregated peptides zeta-potential measurements were conducted with a Zetasizer Nano ZS, Malvern Instruments. Unless stated otherwise the peptides were dissolved from DMSO (10 mg/mL) in PBS (pH 7.4) to concentration of 1 mg/mL and incubated for 1d at RT. Just before the measurement the 60 µL of the peptides were further diluted in 600 µL KCl (aq, 1 mM) in a 1 mL disposable folded capillary cells (DTS–1060, Zetasizer Nano series, Malvern). The zeta potential of the peptides was derived from the electrophoretic mobility based on the Smoluchowski formula. All measurements were averaged over two individually performed experiments and conducted in triplicates for each sample. Aggregate analysis. […] Furthermore, fluorescence microscopy was conducted by staining 1 µL preformed fibrils (1 mg/mL) with 9 µL ThT (50 µM). Brightfield microscopy was performed simultaneously to evaluate aggregation also for non ThT-active fibrils. The measurements were performed on a Leica DMi8 microscope with 10x air objective and equipped with a Leica MC170 HD camera with a filter setting λem = 527/30 nm upon excitation at λex = 480/40 nm) and processed with the Leica LASX software. To quantify size and number of microscopic aggregation of particles > 10 µm^2 at least 3 independently measured images were analyzed via the 3D object counter analysis tool of ImageJ, v 1.53f51. Sum–frequency generation. The SFG experiments were carried out with a femtosecond Ti: Sapphire amplified laser system (Spitfire Ace, Spectra–Physics, 800 nm, 40 fs, 1 kHz) with 5 W output power. We used 2 W to pump an optical parametric amplifier (TOPAS, light conversion) with a non–collinear difference frequency generation stage to generate broadband IR pulses. Another 1 W of the laser output passed through an etalon to generate narrowband visible pulses (10 cm^-1). The incident angles of the visible and IR beams were 36° and 41° with respect to the surface normal, respectively. The visible (13 µJ) and IR (5 µJ) pulses were overlapped spatially and temporally at the sample position. Subsequently, the generated SFG pulse was guided into a spectrograph (Acton SP 300i, Princeton Instruments), and detected with an EMCCD (Newton, Andor Technology). To avoid IR absorption of water vapor, we purged N2 for the measurement. All spectra were collected in the ssp (denoting s-, s- and p-polarized SFG, visible and IR, respectively) polarization combination. The spectra were normalized to the non–resonant signal taken from z–cut quartz after subtracting a background spectrum. […]

[3] = system: HIV-1 infection of TZM-bl cells; experiment: HIV-1 infectivity enhancement assay, β-galactosidase luminescence; assay type: cell-based; settings: for infectivity: infectivity class (low / medium / high) of each library peptide, main list in c1-c6, same classes repeated in sub-lists of sequences containing the hydrophobicity/charge patterns P+,H0,P+,H0,P0,H0,P0, P+,H0,P0,H0,P0,H0,P0, P+,H0,P0,H0; for Log10 Inf. rel. to EF-C: log10 of HIV-1 infection of TZM-bl cells relative to EF-C, Fig S15 source data, asymmetric std dev errors
[4] = assay type: physicochemical; settings: ThT fluorescence relative to blank (42.1851851851852 a.u.)
Procedure: 4 µL of 1 mg/mL peptide fibrils solution is added to a 20 µL, 50 µM ThT–solution in PBS. The mixture is incubated for 15 min at RT to allow binding of ThT dye with β–sheet rich structures. For reference PBS (4 µL) was added instead of peptide fibril solution. The samples were placed in black UV Star® 384 microliter well–plates (Greiner bio–one). Fluorescence spectra were recorded on an Infinite® M1000 PRO microplate reader (Tecan) at λem = 488 nm upon excitation at λex = 440 nm with 10 nm bandwidths and multiple reads per well (3×3). Measurements were repeated in triplicates and averaged with standard deviation. […] Zeta-Potential. For the determination of the surface charge of aggregated peptides zeta-potential measurements were conducted with a Zetasizer Nano ZS, Malvern Instruments. Unless stated otherwise the peptides were dissolved from DMSO (10 mg/mL) in PBS (pH 7.4) to concentration of 1 mg/mL and incubated for 1d at RT. Just before the measurement the 60 µL of the peptides were further diluted in 600 µL KCl (aq, 1 mM) in a 1 mL disposable folded capillary cells (DTS–1060, Zetasizer Nano series, Malvern). The zeta potential of the peptides was derived from the electrophoretic mobility based on the Smoluchowski formula. All measurements were averaged over two individually performed experiments and conducted in triplicates for each sample. Aggregate analysis. […] Furthermore, fluorescence microscopy was conducted by staining 1 µL preformed fibrils (1 mg/mL) with 9 µL ThT (50 µM). Brightfield microscopy was performed simultaneously to evaluate aggregation also for non ThT-active fibrils. The measurements were performed on a Leica DMi8 microscope with 10x air objective and equipped with a Leica MC170 HD camera with a filter setting λem = 527/30 nm upon excitation at λex = 480/40 nm) and processed with the Leica LASX software. To quantify size and number of microscopic aggregation of particles > 10 µm^2 at least 3 independently measured images were analyzed via the 3D object counter analysis tool of ImageJ, v 1.53f51. Sum–frequency generation. The SFG experiments were carried out with a femtosecond Ti: Sapphire amplified laser system (Spitfire Ace, Spectra–Physics, 800 nm, 40 fs, 1 kHz) with 5 W output power. We used 2 W to pump an optical parametric amplifier (TOPAS, light conversion) with a non–collinear difference frequency generation stage to generate broadband IR pulses. Another 1 W of the laser output passed through an etalon to generate narrowband visible pulses (10 cm^-1). The incident angles of the visible and IR beams were 36° and 41° with respect to the surface normal, respectively. The visible (13 µJ) and IR (5 µJ) pulses were overlapped spatially and temporally at the sample position. Subsequently, the generated SFG pulse was guided into a spectrograph (Acton SP 300i, Princeton Instruments), and detected with an EMCCD (Newton, Andor Technology). To avoid IR absorption of water vapor, we purged N2 for the measurement. All spectra were collected in the ssp (denoting s-, s- and p-polarized SFG, visible and IR, respectively) polarization combination. The spectra were normalized to the non–resonant signal taken from z–cut quartz after subtracting a background spectrum.
as §1

[5] = Turbidity, derived count rate of scattered light; assay type: physicochemical
Procedure: as §2
ways to determine turbidity of samples, this can be via transmittance and via scattering. Transmittance […]
as it is an easy and fast method.10,11 However, transmittance contributes not only from µm-sized aggregates but also nm-sized aggregates such as distinct fibrils, which makes hard to distinguish between fibril formation and micrometer sized aggregation. Although dynamic light scattering is a frequently applied method for determination of particle size, it cannot be conducted in solutions with anisotropic aggregates in micrometer size range, since the Stokes-Einstein relation is only applicable for homogeneous […] spherical particles.12 Further models describing scattering intensity and […]

EFEFQFNMWQ [JH1]
TEM: 1= fibrils, 0= aggregates (micelle), 0.5 = aggregates and fibrils, -1 = nothing obersved, STD prep [1]: 1
TEM: 1= fibrils, 0= aggregates (micelle), 0.5 = aggregates and fibrils, -1 = nothing obersved, STD prep ([1]; TEM): 1
Zeta category ( +1 = if > 4 mV;-1 = if < -4 mV; 0 = -4mV to 4 mV) [2]: 0 (0 = -4mV to 4 mV)
Zeta category ( +1 = if > 4 mV;-1 = if < -4 mV; 0 = -4mV to 4 mV) ([2]; category derived from the zeta potential): 0 (0 = -4mV to 4 mV)

ILKNLSRSRKIKIQINMWQ [TM92]
Log10 of Rel to EFC (Feb2021) ([3]; Feb2021, Log10 of infectivity relative to EF-C): -0.4939
Rel-to EFC (Feb-2021) ([3]; Feb2021, n-fold enhancement relative to EF-C): 0.3207
infectivity [3]: medium
Log10 Inf. rel. to EF-C [3]: -0.4939
Tht rel to blank (42.1851851851852) [4]: 3.339
Zeta category ( +1 = if > 4 mV;-1 = if < -4 mV; 0 = -4mV to 4 mV) ([2]; category from zeta potential): 1 (+1 = if > 4 mV)
Zeta Pot. / mV ([2]; mean, Std Zeta in next column): 19.2 mV
Zeta-pot. / mV [2]: 19.2 mV
Zeta Count Rate Category ([5]; category 1 or 0 from count rate, key not given): 1
Zeta Count Rate / kcps ([5]; derived count rate of scattered light, mean, std deviation in next column): 306.5 kcps

KCQCQCQ
Log10 Infection Rel EF-C ([3]; log10 of infection relative to EF-C, Figure 6C): 0.05949
Inf. rel. EF-C ([3]; n-fold infection vs virus only, relative to that of EF-C, 1.3 µM peptide): 1.15
Fibril / Fibril Formation ([1]; TEM, 1 mg/mL, uranyl acetate stain, qualitative): 1
Zeta-Potential / mV ([2]; mean, Figure 6C): 11.83 mV
Count Rate / kcps ([5]; derived count rate of scattered light at 633 nm, 173°, from zeta-potential measurement, 0.1 mg/mL in 1 mM KCl after 1 d at 1 mg/mL in PBS, turbidity / microscopic aggregation, mean of triplicate): 15236 kcps
Log10 Count Rate ([5]; log10 of derived count rate of scattered light, Figure 6C): 4.183
Log10 Count Rate ([5]; logarithm of count rate in kcps): 4.183

Lysozyme
Zeta Potential ([2]; mean of n = 3): 4.807
Zeta-Potential ([2]; replicate 1): 4.05
Zeta-Potential ([2]; replicate 2): 5.03
Zeta-Potential ([2]; replicate 3): 5.34
Count Rate ([5]; derived count rate of scattered light, mean of n = 3): 217.9 kcps
Count Rate ([5]; derived count rate of scattered light, replicate 1): 304.4 kcps
Count Rate ([5]; derived count rate of scattered light, replicate 2): 195.7 kcps
Count Rate ([5]; derived count rate of scattered light, replicate 3): 153.6 kcps

NMWQKVGTPL [JG7]
infectivity [3]: low
Log10 Inf. rel. to EF-C [3]: -1.607
Zeta-pot. / mV [2]: -9.62 mV

PPFHPPPFHP [CN22]
infectivity [3]: low
Log10 Inf. rel. to EF-C [3]: -1.751
Zeta-pot. / mV [2]: -15.8 mV

RGDKIRGDKI [CN4]
infectivity [3]: low
Log10 Inf. rel. to EF-C [3]: -2.126
Zeta-pot. / mV [2]: -13.57 mV

RPRGLLLGNLR [CN20]
infectivity [3]: low
Log10 Inf. rel. to EF-C [3]: -1.3163
Zeta-pot. / mV [2]: -8.15 mV

SISISRRI [CN28]
infectivity [3]: low
Log10 Inf. rel. to EF-C [3]: -1.548
Zeta-pot. / mV [2]: -17 mV

TKTLTKTL [CN25]
infectivity [3]: low
Log10 Inf. rel. to EF-C [3]: -1.671
Zeta-pot. / mV [2]: -25.1 mV
